US12466856B2, “Echinocandin analogues and preparation method therefor” (SHANGHAI SENHUI MEDICINE CO., LTD., priority 2019, dated 2025)
Read-outs that look alike come from different tables or passages of the source. Starred links: 1 amine or outer side, 2 acyl side, 3 side chain; linkers in the order of their positions; H or OH if unused. Positions of bridges follow the written chain, without caps; N, C: chain ends. Non-standard residues stand in square brackets, D forms with d. Residues, ends and D or L forms follow the SMILES beside them. *: point of attachment. Orn(4R-OH,5R-OCH2CH2NMe3+) = C[N+](C)(C)CCO[C@@H](N[*:3])[C@H](O)C[C@H](N[*:1])C(=O)[*:2]; hTyr(3S-OH,4S-OH) = N[C@H](C(=O)O)[C@H](O)[C@@H](O)c1ccc(O)cc1; X1 = O=C(c1ccc(-c2ccc(-c3ccc(OCCCCCF)cc3)cc2)cc1)*; Pro(3S-OH,4S-Me) = C[C@H]1CN[C@H](C(=O)O)[C@H]1O; Hyp = O=C(O)[C@@H]1C[C@@H](O)CN1

Key:
[1] = system: Candida albicans ATCC 90029; assay: MIC assay (CLSI M27-A3), Candida albicans ATCC 90029; assay type: cell-based; conditions: for MIC: Candida albicans, read-out: MIC, Candida albicans ATCC 90029
Procedure: (§1) After a test compound was serially diluted, an MIC (minimum inhibitory concentration) assay was performed on the standard Candida strain and an MEC (minimum effective concentration) assay on the standard Aspergillus strain. The MIC assay was performed according to the guidelines of the Clinical and Laboratory Standards Institute (CLSI M27-A3) and the MEC assay according to the guidelines of the Clinical and Laboratory Standards Institute (CLSI M38-A2).
(§2) The frozen strain was passaged at least twice, and a single colony was picked and resuspended in normal saline or sterile water in a tube. The suspension was vortexed and adjusted to 0.5 McF (1×10^6 to 5×10^6 CFU/mL) using a spectrophotometer at wavelength 530 nm. The suspension was 50-fold diluted with normal saline and then 20-fold diluted with 1×RPMI 1640 broth (1×10^3 to 5×10^3 CFU/mL). 10 μL of the suspension was applied to an SDA plate for colony counting, with a range from about 10 to 50 single colonies.
(§3) At this time, the bacterium concentration in each well should be 0.5×10^3 to 2.5×10^3 CFU/mL.
(§4) For echinocandin drugs, Aspergillus was incubated at 28° C. for 21-26 h, and then the MEC results were read.
(§5) Yeast-type fungi: A disposable sealing film was applied to the 96-well plate, and the mixture was well mixed by shaking. Observation was performed through a plate reader with the naked eye. Comparisons were made to the growth control, and the minimum compound concentration corresponding to ≥50% growth inhibition was defined as MIC. Pictures were taken and saved using an automatic plate reader.

[2] = system: Candida glabrata ATCC 15126; assay: MIC assay (CLSI M27-A3), Candida glabrata ATCC 15126; assay type: cell-based; conditions: for MIC: Nakaseomyces glabratus, read-out: MIC, Candida glabrata ATCC 15126
Procedure: as §1, §2, §3, §4, §5

[3] = system: Candida parapsilosis ATCC 22019; assay: MIC assay (CLSI M27-A3), Candida parapsilosis ATCC 22019; assay type: cell-based; conditions: for MIC: Lodderomyces parapsilosis, ATCC22019, 24 h, read-out: MIC, Candida parapsilosis ATCC 22019
Procedure: as §1, §2, §3, §4, §5

[4] = system: Candida krusei ATCC 6258; assay: MIC assay (CLSI M27-A3), Candida krusei ATCC 6258; assay type: cell-based; conditions: for MIC: Pichia kudriavzevii, ATCC6258, 24 h, read-out: MIC, Candida krusei ATCC 6258
Procedure: as §1, §2, §3, §4, §5

[5] = system: Meyerozyma guilliermondii ATCC 6260; assay: MIC assay (CLSI M27-A3), Meyerozyma guilliermondii ATCC 6260; assay type: cell-based; conditions: for MIC: Meyerozyma guilliermondii, read-out: MIC, Meyerozyma guilliermondii ATCC 6260
Procedure: as §1, §2, §3, §4, §5

[6] = system: Candida tropicalis ATCC 750; assay: MIC assay (CLSI M27-A3), Candida tropicalis ATCC 750; assay type: cell-based; conditions: for MIC: Candida tropicalis, read-out: MIC, Candida tropicalis ATCC 750
Procedure: as §1, §2, §3, §4, §5

[7] = system: Aspergillus flavus ATCC 28539; assay: MEC assay (CLSI M38-A2), Aspergillus flavus ATCC 28539; assay type: cell-based; conditions: first batch; 28° C., 21-26 h
Procedure: The MIC assay was performed according to the guidelines of the Clinical and Laboratory Standards Institute (CLSI M27-A3) and the MEC assay according to the guidelines of the Clinical and Laboratory Standards Institute (CLSI M38-A2).
Colonies on the plate were covered with about 1 mL of 0.85% normal saline or sterile water (polysorbate 20 was added at a final concentration of 0.1%-0.01%). […] The homogeneous upper layer of the suspension was transferred to a new sterile tube, which was then sealed and vortexed for 15 s (be careful as the suspension may produce an aerosol when the cover is removed). The concentration of the suspension was adjusted until an OD value of 0.09-0.13 was achieved using a spectrophotometer at 530 nm. […] 100 μL of sample was added to each well of the 96-well plate within 2 h after dilution (the final spore concentration in the susceptibility testing plate was at 0.4×10^4 to 5×10^4 CFU/mL).
Aspergillus: For echinocandin drugs, comparisons were made to the growth control under a plate reader, and the minimum drug concentration that could cause the hyphae to form small, round, compact hyphal particles was defined as MEC. For accurate determination of MEC values, the plate must not be vortexed before reading.

[8] = system: Candida albicans ATCC 90028; assay: MIC assay (CLSI M27-A3), Candida albicans ATCC 90028; assay type: cell-based; conditions: Candida albicans, ATCC90028, second batch
Procedure: as §1, §2
At this time, the bacterium concentration in each well should be 0.5×10^3 to 2.5×10^3 CFU/mL. […]
as §5

[9] = system: Candida albicans ATCC 44858; assay: MIC assay (CLSI M27-A3), Candida albicans ATCC 44858; assay type: cell-based; conditions: Candida albicans, ATCC44858; second batch; read-out: MIC, Candida albicans ATCC 44858
Procedure: as §1, §2, §3, §4, §5

[10] = system: Candida glabrata ATCC 36583; assay: MIC assay (CLSI M27-A3), Candida glabrata ATCC 36583; assay type: cell-based; conditions: Nakaseomyces glabratus, ATCC36583; second batch; read-out: MIC, Candida glabrata ATCC 36583
Procedure: as §1, §2, §3, §4, §5

[11] = system: Candida albicans (azole drug-resistant strain) R357; assay: MIC assay (CLSI M27-A3), Candida albicans azole drug-resistant strain R357; assay type: cell-based; conditions: Candida albicans; second batch; read-out: MIC, Candida albicans (azole drug-resistant strain) R357
Procedure: as §1, §2, §3, §4, §5

[12] = system: Candida albicans (azole drug-resistant strain) R358; assay: MIC assay (CLSI M27-A3), Candida albicans azole drug-resistant strain R358; assay type: cell-based; conditions: Candida albicans; second batch; read-out: MIC, Candida albicans (azole drug-resistant strain) R358
Procedure: as §1, §2, §3, §4, §5

[13] = system: Candida tropicalis (amphotericin-resistant strain) ATCC 200956; assay: microbe, parasite or virus in culture; assay type: cell-based; conditions: Candida tropicalis, ATCC200956, read-out: MIC, Candida tropicalis (amphotericin-resistant strain) ATCC 200956
Procedure: as §1, §2, §3, §4, §5

[14] = Plasma histamine assay after single intravenous injection in SD rats; assay type: in vivo; conditions: same dose (10 mg/kg), single intravenous injection, versus rezafungin acetate
Procedure: (§6) 12 SD rats were divided into 2 groups of 6 (half are male and half female). […] The body weights were measured once before administration. Administration was performed by single intravenous injection for 20 min per animal. PK measurement was performed once before administration and 5 min, 30 min, 1 h, 4 h, 8 h, 24 h, 48 h, 72 h and 96 h after administration. A histamine assay was performed once before administration and 30 min, 4 h, 8 h and 24 h after administration.

[15] = Pharmacokinetic study after single intravenous injection in SD rats; assay type: in vivo; conditions: 10 mg/kg single intravenous injection
Procedure: as §6

[16] = ATCC90029, first batch, 24 h, 35° C., ≥50% growth inhibition
[17] = ATCC6260, first batch, 24 h, 35° C.
[18] = ATCC750, first batch, 24 h, 35° C.
[19] = first batch, 24 h, 35° C., ≥50% growth inhibition
[20] = first batch, 24 h, 35° C., quality control strain

With `CCCCCOc1ccc(-c2ccc(-c3ccc(C(=O)N[C@H]4C[C@@H](O)[C@@H](OCC[N+]5(C)CCCCC5)NC(=O)[C@@H]5[C@@H](O)[C@@H](C)CN5C(=O)[C@H]([C@@H](C)O)NC(=O)[C@H]([C@H](O)[C@@H](O)c5ccc(O)cc5)NC(=O)[C@@H]5C[C@@H](O)CN5C(=O)[C@H]([C@@H](C)O)NC4=O)cc3)cc2)cc1` [Example 10] the MIC [1, 16] was 0.25 µg/mL, the MIC ([2]; ATCC15126, first batch, 24 h, 35° C., ≥50% growth inhibition) was 0.5 µg/mL and the MIC [3] was 2 µg/mL. For the same compound, the MIC [4] was 0.5 µg/mL, the MIC [5, 17] was 4 µg/mL and the MIC [6, 18] was 0.031 µg/mL. For the same compound, the “MEC, Aspergillus flavus ATCC 28539” value [7] was 0.031 µg/mL.
In the case of `C[C@@H](O)[C@@H]1NC(=O)[C@H]([C@H](O)[C@@H](O)c2ccc(O)cc2)NC(=O)[C@@H]2C[C@@H](O)CN2C(=O)[C@H]([C@@H](C)O)NC(=O)[C@@H](NC(=O)c2ccc(-c3ccc(-c4ccc(OCCCCCF)cc4)cc3)cc2)C[C@@H](O)[C@@H](OCC[N+](C)(C)C)NC(=O)[C@@H]2[C@@H](O)[C@@H](C)CN2C1=O` [Example 11] (X1-[Orn(4R-OH,5R-OCH2CH2NMe3+)]T[Hyp][hTyr(3S-OH,4S-OH)]T[Pro(3S-OH,4S-Me)]; lactam 1-C), the MIC ([1]; ATCC90029, 24 h) is reported as 0.125 µg/mL, the MIC ([2]; ATCC15126, 24 h) is reported as 0.5 µg/mL and the MIC [3] is reported as 4 µg/mL. For the same compound, the MIC [4] was 0.5 µg/mL, the MIC ([5]; ATCC6260, 24 h) was 2 µg/mL and the MIC ([6]; ATCC750, 24 h) was 0.031 µg/mL. The “MEC, Aspergillus flavus ATCC 28539” value [7] was 0.031 µg/mL.
Work on `CCCCCOc1ccc(-c2ccc(-c3ccc(C(=O)N[C@H]4C[C@@H](O)[C@@H](OC[C@H]5CCC[N+]5(C)C)NC(=O)[C@@H]5[C@@H](O)[C@@H](C)CN5C(=O)[C@H]([C@@H](C)O)NC(=O)[C@H]([C@H](O)[C@@H](O)c5ccc(O)cc5)NC(=O)[C@@H]5C[C@@H](O)CN5C(=O)[C@H]([C@@H](C)O)NC4=O)cc3)cc2)cc1` [Example 13] yielded an MIC [1, 16] of 0.031 µg/mL, an MIC [3] of 1 µg/mL and an MIC [4] of 0.047 µg/mL. It also gave an MIC [5, 17] of 1 µg/mL, an MIC [6, 18] of 0.016 µg/mL and an MIC ([8]; 24 h, 35° C., read-out: MIC, Candida albicans ATCC 90028) of 0.25 µg/mL. The MIC ([8]; + 50% human serum, read-out: MIC, Candida albicans + 50% human serum ATCC 90028) was 0.25 µg/mL, the MIC [9] was 0.25 µg/mL and the MIC [10] was 0.5 µg/mL. It also gave an MIC [11] of 0.5 µg/mL, an MIC [12] of 0.25 µg/mL and an MIC [13] of 0.25 µg/mL. For the same compound, the “ability to induce increases in the histamine level in rats” value [14] was “significantly lower than that of rezafungin acetate”, the MRTIV ([15]; female SD rats) was 34.6 h and the MRTIV ([15]; male SD rats) was 37.1 h.
In the case of “Caspofungin acetate [reference compound]”, the “MIC, Candida albicans ATCC 90029” value [1, 19] is reported as 0.063 µg/mL, the “MIC, Candida glabrata ATCC 15126” value [2, 19] is reported as 0.25 µg/mL and the “MIC, Candida parapsilosis ATCC 22019” value [3, 20] is reported as 1 µg/mL. For the same compound, the “MIC, Candida krusei ATCC 6258” value [4, 20] was 1 µg/mL, the “MIC, Meyerozyma guilliermondii ATCC 6260” value ([5]; first batch, 24 h, 35° C.) was 1 µg/mL and the “MIC, Candida tropicalis ATCC 750” value ([6]; first batch, 24 h, 35° C.) was 0.016 µg/mL. The “MEC, Aspergillus flavus ATCC 28539” value [7] was 0.031 µg/mL.
